Here are results for 32 compounds from patent US20110046130A1, “TETRAHYDRONAPHTHYRIDINES AND AZA DERIVATIVES THEREOF AS HISTAMINE H3 RECEPTOR ANTAGONISTS” (Evotec AG, priority 2008, published 2011).

Bounds are passed on as bounds.

T1 sequence (Q9Y5N1 whole entry): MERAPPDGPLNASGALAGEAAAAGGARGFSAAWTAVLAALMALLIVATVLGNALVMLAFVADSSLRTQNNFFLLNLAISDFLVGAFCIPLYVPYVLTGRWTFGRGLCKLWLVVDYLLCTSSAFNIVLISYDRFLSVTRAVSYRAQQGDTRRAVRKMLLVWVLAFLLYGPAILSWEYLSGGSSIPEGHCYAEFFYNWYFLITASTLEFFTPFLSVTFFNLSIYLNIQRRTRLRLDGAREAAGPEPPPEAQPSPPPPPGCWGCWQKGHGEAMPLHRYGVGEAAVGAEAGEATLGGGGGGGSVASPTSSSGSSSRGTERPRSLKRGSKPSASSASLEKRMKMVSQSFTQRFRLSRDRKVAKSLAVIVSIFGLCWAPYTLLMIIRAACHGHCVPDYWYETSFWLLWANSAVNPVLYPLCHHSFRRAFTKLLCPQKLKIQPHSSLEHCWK

This assay concerns the target T1, human H3 receptors (Homo sapiens, UniProt Q9Y5N1).
T1 construct: host or cells: CHO-K1
As to the kind of experiment: cAMP quantification protocol for human H3 receptor testing. The format is cell-based. Particulars: inhibition of agonist-induced (100 nM histamine, 10 μM forskolin) decrease of intracellular cAMP; CHO-K1 cell line expressing human H3 receptors; read-out: Potency range (IC50 values). The procedure:
CHO-K1 cell line expressing human H3 receptors were purchased from Euroscreen (Gosselies, Belgium, Cat. no.: ES-392-C)
Human H3 receptor-expressing cell-lines were grown in Ham's F12 [Sigma, Cat. no. N6658], supplemented with 10% FBS [Sigma, Cat. no. F9665], 400 μg/ml G418 [Sigma, Cat. no. N1876] and 250 μg/ml Zeocin [Invitrogen, Cat. no. 46-0509]) according to the protocol provided by Euroscreen.
cAMP Quantification Protocol for Human H3 Receptor Testing
The assay measures the ability of test compounds to inhibit Histamine receptor agonist-induced decrease of intracellular free cAMP (receptor is Gi coupled).
Specifically, a cAMP quantification assay system from DiscoveRx (cAMP XS+; Cat. no. 90-0075) was used.
For the cAMP assay, confluent cells were detached from the culture vessels with 1× trypsin-EDTA solution (Sigma), and seeded into 384-well Costar plates (white, clear bottom, Cat. no. 3707) at a density of 10,000 cells per well. Cells were seeded in a volume of 50 μl in medium without antibiotics and incubated overnight in a humidified atmosphere with 5% CO2 at 37° C. The cAMP assay was performed according to the protocol provided by DiscoveRx.
The cell culture medium was removed and the cells washed once with PBS (50 μl per well). The plates were emptied by inversion and 7.5 μl/well of compound in PBS (containing 1 mM IBMX and 0.03% BSA) were added and incubated for 30 min at 37° C.
Subsequent 7.5 μl/well specific agonist solution was added and the plates for another 30 min incubated at 37° C.
The following agonist solution is used:
100 nM histamine, 10 μM forskolin in PBS (containing 1 mM IBMX and 0.03% BSA)
After the incubation with the agonist, 5 μl/well cAMP XS antibody solution was added followed by 20 μl/well Gal/EII/Lysis(1:5:19)+ED (1:1). The plates were incubated for one hour at room temperature and afterwards 20 μl/well EA reagent was added. The luminescence was developed for approximately three hours at room temperature and the plates were read out using a ‘BMG Novostar’ plate reader.
Test compounds were assayed at 8 concentrations in triplicate. Serial 10-fold dilutions in 100% DMSO were made at a 100-times higher concentration than the final concentration and then diluted with a 2 step protocol in assay buffer to reach the required assay concentrations and 1% DMSO.
The term IC50 denotes the concentration that inhibits the measured activity by half. Consider `O=C1CCCC2c3ccc(O[C@@H]4CCN(C5CCC5)C4)nc3CCN12` (mixture of isomers) [Example 16, 3-{[(3R)-1-cyclobutylpyrrolidin-3-yl]oxy}-5,6,9,10,11,11a-hexahydro-8H-pyrido[2,1-f][1,6]naphthyridin-8-one], for which the IC50 lay in the range of 100 to 500 nM.

On to `O=C1CCCC2c3ccc(O[C@H]4CCN(C5CCC5)C4)nc3CCN12` (mixture of isomers) [Example 17, 3-{[(3S)-1-cyclobutylpyrrolidin-3-yl]oxy}-5,6,9,10,11,11a-hexahydro-8H-pyrido[2,1-f][1,6]naphthyridin-8-one], for which the IC50 was 500 to 5000 nM.

As for `CN1CCc2nc(OC3CCN(C4CCC4)CC3)ccc2C1` [Example 1, 2-[(1-Cyclobutylpiperidin-4-yl)oxy]-6-methyl-5,6,7,8-tetrahydro-1,6-naphthyridine], the IC50 is less than 100 nM.

As to `CN1CCc2nc(OC3CCN(C4CCCC4)CC3)ccc2C1` [Example 2, 2-[(1-Cyclopentylpiperidin-4-yl)oxy]-6-methyl-5,6,7,8-tetrahydro-1,6-naphthyridine], the IC50 is less than 100 nM.

For `CN1CCc2nc(O[C@@H]3CCN(C4CCCC4)C3)ccc2C1` [Example 3, 2-{[(3R)-1-Cyclopentylpyrrolidin-3-yl]oxy}-6-methyl-5,6,7,8-tetrahydro-1,6-naphthyridine], the IC50 was 100 to 500 nM.

Consider `CN1CCc2nc(O[C@H]3CCN(C4CCCC4)C3)ccc2C1` [Example 4, 2-{[(3S)-1-Cyclopentylpyrrolidin-3-yl]oxy}-6-methyl-5,6,7,8-tetrahydro-1,6-naphthyridine], for which the concentration for half-maximal inhibition (IC50) fell in the range of 100 to 500 nM.

On to `CN1CCc2nc(O[C@@H]3CCN(C4CCC4)C3)ccc2C1` [Example 5, 2-{[(3R)-1-Cyclobutylpyrrolidin-3-yl]oxy}-6-methyl-5,6,7,8-tetrahydro-1,6-naphthyridine], for which the IC50 was 100 to 500 nM.

Turning to `CN1CCc2nc(O[C@H]3CCN(C4CCC4)C3)ccc2C1` [Example 6, 2-{[(3S)-1-Cyclobutylpyrrolidin-3-yl]oxy}-6-methyl-5,6,7,8-tetrahydro-1,6-naphthyridine], the concentration for half-maximal inhibition (IC50) lay within 500 to 5000 nM.

As to `CN1CCc2nc(OCCCN3CCCC3)ccc2C1` [Example 7, 6-Methyl-2-(3-pyrrolidin-1-ylpropoxy)-5,6,7,8-tetrahydro-1,6-naphthyridine], the 50% inhibitory concentration (IC50) was less than 100 nM.

Regarding `CC(C)N1CCC(Oc2ccc3c(n2)CCN(C)C3)CC1` [Example 8, 6-Methyl-2-{[1-(1-methylethyl)piperidin-4-yl]oxy}-5,6,7,8-tetrahydro-1,6-naphthyridine], the concentration for half-maximal inhibition (IC50) is less than 100 nM.

For the compound `CN1CCC(Oc2ccc3c(n2)CCN(C)C3)CC1` [Example 9, 6-Methyl-2-[(1-methylpiperidin-4-yl)oxy]-5,6,7,8-tetrahydro-1,6-naphthyridine], the IC50 lay in the range of 500 to 5000 nM.

With `CC(C)N1CCC(Oc2nc3c(cc2C#N)CN(C)CC3)CC1` [Example 10, 6-Methyl-2-{[1-(1-methylethyl)piperidin-4-yl]oxy}-5,6,7,8-tetrahydro-1,6-naphthyridine-3-carbonitrile], the IC50 was less than 100 nM.

As to `CN1CCc2nc(OC3CCN(C4CC4)CC3)c(C#N)cc2C1` [Example 11, 2-[(1-Cyclopropylpiperidin-4-yl)oxy]-6-methyl-5,6,7,8-tetrahydro-1,6-naphthyridine-3-carbonitrile], the IC50 is less than 100 nM.

For `CN1CCc2nc(OC3CCN(C4CCC4)CC3)c(C#N)cc2C1` [Example 12, 2-[(1-Cyclobutylpiperidin-4-yl)oxy]-6-methyl-5,6,7,8-tetrahydro-1,6-naphthyridine-3-carbonitrile], the IC50 is less than 100 nM.

With `CN1CCc2nc(OC3CCN(C4CCC4)CC3)ncc2C1` [Example 13, 2-[(1-Cyclobutylpiperidin-4-yl)oxy]-6-methyl-5,6,7,8-tetrahydropyrido[4,3-d]pyrimidine], the concentration for half-maximal inhibition (IC50) was less than 100 nM.

As for `O=C1CCCC2c3ccc(OC4CCN(C5CCC5)CC4)nc3CCN12` (centres unmarked) [Example 14, 3-[(1-Cyclobutylpiperidin-4-yl)oxy]-5,6,9,10,11,11a-hexahydro-8H-pyrido[2,1-f][1,6]naphthyridin-8-one], the IC50 is less than 100 nM.

Turning to `CC(C)N1CCC(Oc2ccc3c(n2)CCN2C(=O)CCCC32)CC1` (centres unmarked) [Example 15, 3-{[1-(1-methylethyl)piperidin-4-yl]oxy}-5,6,9,10,11,11a-hexahydro-8H-pyrido[2,1-f][1,6]naphthyridin-8-one], the IC50 is less than 100 nM.

Turning to `O=C1CCCC2c3ccc(OCCCN4CCCC4)nc3CCN12` (centres unmarked) [Example 18, 3-(3-pyrrolidin-1-ylpropoxy)-5,6,9,10,11,11a-hexahydro-8H-pyrido[2,1-f][1,6]naphthyridin-8-one], the half-maximal inhibitory concentration (IC50) was less than 100 nM.

On to `O=C1CCCC2c3ccc(OCCCN4CCCCC4)nc3CCN12` (centres unmarked) [Example 19, 3-(3-piperidin-1-ylpropoxy)-5,6,9,10,11,11a-hexahydro-8H-pyrido[2,1-f][1,6]naphthyridin-8-one], for which the concentration for half-maximal inhibition (IC50) was less than 100 nM.

For the compound `O=C1CCCC2c3ccc(OCCCN4CCOCC4)nc3CCN12` (centres unmarked) [Example 20, 3-(3-morpholin-4-ylpropoxy)-5,6,9,10,11,11a-hexahydro-8H-pyrido[2,1-f][1,6]naphthyridin-8-one], the half-maximal inhibitory concentration (IC50) is 500 to 5000 nM.

As to `O=C1CCCC2c3ccc(O[C@H]4CCN(C5CCCC5)C4)nc3CCN12` (stereo partly drawn) [Example 21, 3-{[(3S)-1-cyclopentylpyrrolidin-3-yl]oxy}-5,6,9,10,11,11a-hexahydro-8H-pyrido[2,1-f][1,6]naphthyridin-8-one], the IC50 was 100 to 500 nM.

With `O=C1CCCC2c3ccc(OC4CCN(C5CCCCC5)CC4)nc3CCN12` (centres unmarked) [Example 22, 3-[(1-Cyclohexylpiperidin-4-yl)oxy]-5,6,9,10,11,11a-hexahydro-8H-pyrido[2,1-f][1,6]naphthyridin-8-one], the half-maximal inhibitory concentration (IC50) is less than 100 nM.

`CN1CCC(Oc2ccc3c(n2)CCN2C(=O)CCCC32)CC1` (centres unmarked) [Example 23, 3-[(1-Methylpiperidin-4-yl)oxy]-5,6,9,10,11,11a-hexahydro-8H-pyrido[2,1-f][1,6]naphthyridin-8-one]: the IC50 is 500 to 5000 nM.

For the compound `O=C1CCCC2c3ccc(OCCN4CCCCC4)nc3CCN12` (centres unmarked) [Example 24, 3-(2-piperidin-1-ylethoxy)-5,6,9,10,11,11a-hexahydro-8H-pyrido[2,1-f][1,6]naphthyridin-8-one], the half-maximal inhibitory concentration (IC50) lay within 500 to 5000 nM.

With `O=C1CCCC2c3ccc(OCCCCN4CCCCC4)nc3CCN12` (centres unmarked) [Example 25, 3-(4-piperidin-1-ylbutoxy)-5,6,9,10,11,11a-hexahydro-8H-pyrido[2,1-f][1,6]naphthyridin-8-one], the IC50 lay in the range of 100 to 500 nM.

In the case of `O=C1CCCC2c3ccc(OC4CCN(C5CCCC5)CC4)nc3CCN12` (centres unmarked) [Example 26, 3-[(1-Cyclopentylpiperidin-4-yl)oxy]-5,6,9,10,11,11a-hexahydro-8H-pyrido[2,1-f][1,6]naphthyridin-8-one], the IC50 is less than 100 nM.

As for `O=C1CCC2c3ccc(OC4CCN(C5CCC5)CC4)nc3CCN12` (centres unmarked) [Example 27, 3-[(1-Cyclobutylpiperidin-4-yl)oxy]-5,9,10,10a-tetrahydropyrrolo[2,1-f][1,6]naphthyridin-8(6H)-one], the IC50 is less than 100 nM.

Turning to `O=C1CCC2c3ccc(OC4CCN(C5CCCC5)CC4)nc3CCN12` (centres unmarked) [Example 28, 3-[(1-Cyclopentylpiperidin-4-yl)oxy]-5,9,10,10a-tetrahydropyrrolo[2,1-f][1,6]naphthyridin-8(6H)-one], the half-inhibitory concentration (IC50) was less than 100 nM.

As for `N#Cc1cc2c(nc1OC1CCN(C3CCC3)CC1)CCN1C(=O)CCCC21` (centres unmarked) [Example 29, 3-[(1-Cyclobutylpiperidin-4-yl)oxy]-8-oxo-5,8,9,10,11,11a-hexahydro-6H-pyrido[2,1-f][1,6]naphthyridine-2-carbonitrile], the IC50 was less than 100 nM.

As for `CC(C)N1CCC(Oc2nc3c(cc2C#N)C2CCCC(=O)N2CC3)CC1` (centres unmarked) [Example 30, 3-{[1-(1-methylethyl)piperidin-4-yl]oxy}-8-oxo-5,8,9,10,11,11a-hexahydro-6H-pyrido[2,1-f][1,6]naphthyridine-2-carbonitrile], the IC50 is less than 100 nM.

`CN(c1nc2c(cc1C#N)C1CCCC(=O)N1CC2)C1CCN(C2CCC2)CC1` (centres unmarked) [Example 31, 3-[(1-cyclobutylpiperidin-4-yl)(methyl)amino]-8-oxo-5,8,9,10,11,11a-hexahydro-6H-pyrido[2,1-f][1,6]naphthyridine-2-carbonitrile]: the half-maximal inhibitory concentration (IC50) was less than 100 nM.

Regarding `CC(C)N1CCC(N(C)c2ccc3c(n2)CCN2C(=O)CCCC32)CC1` (centres unmarked) [Example 32, 3-{methyl[1-(1-methylethyl)piperidin-4-yl]amino}-5,6,9,10,11,11a-hexahydro-8H-pyrido[2,1-f][1,6]naphthyridin-8-one], the 50% inhibitory concentration (IC50) is less than 100 nM.
